Source: patent publication US20250368644A1, “DURLOBACTAM CRYSTALLINE FORMS” (Entasis Therapeutics Limited, priority 2022, published 2025)
Where a name gives a salt, the structure may show the parent alone. One block for each compound: values may come before it.

Assays:
[1] = Stability of DUR, its salts and crystalline forms (observations in words); details: for Stability of the crystalline form: DUR-Ca polymorphs, solvent systems, Calcium salt
Method: (§1) Attempts were undertaken to form DUR-Ca via salt metathesis by slurry reaction of DUR-TBA salt with six calcium salts (CaCl2), CaBr2, Ca(BF4)2. Ca(OAc)2, Calcium D-gluconate and Calcium citrate) to find an alternative method to the ion exchange resin, which is very time consuming and costly to scale up.
A range of crystallization experiments were carried out, including evaporations, ambient temperature slurries, vapor stress at ambient temperature and temperature cycling, in many different solvents, or solvent mixtures, using crystalline DUR-Ca, DUR-TBA, and DUR-TEA salts as seeds.

[2] = Solubility of the salt in solvents (observations in words); type: physicochemical
From the text: as §1

[3] = Salt slurry experiments with DUR-Ca Form A (solid form after slurry in solvents); type: physicochemical; details: 3 days
From the text: DUR-Ca Form A was slurred in 26 solvents for 3 days. A new distinct form (assigned as Form C) was obtained in most of solvents (Table 19).

[4] = tested on: β-lactamases commonly found in A. baumannii; details: preclinical studies, background statement; cited from earlier work

Structure (SMILES): CC1=CC2CN(C(=O)N2OS(=O)(=O)O)C1C(N)=O.c1ccncc1 (centres unmarked) [pyridine salt]
Stability of the salt as isolated solid [1]: not stable

Structure (SMILES): CC1=C[C@@H]2CN(C(=O)N2OS(=O)(=O)O)[C@@H]1C(N)=O [DUR-TBA, Durlobactam Tetrabutylammonium salt]
Solubility ([2]; EtOH): soluble | Solubility ([2]; most solvents): soluble in most solvents

Structure (SMILES): CC1=C[C@@H]2CN(C(=O)N2OS(=O)(=O)O)[C@@H]1C(N)=O [DUR-Ca Form A, Durlobactam Calcium salt]
Result (solid form after slurry) ([3]; Slurry 1, Methanol): Form C | Result (solid form after slurry) ([3]; Slurry 2, Ethanol): Form C | Result (solid form after slurry) ([3]; Slurry 3, IPA): Form C | Result (solid form after slurry) ([3]; Slurry 4, THF): Amorphous | Result (solid form after slurry) ([3]; Slurry 5, EtOAc): Form C | Result (solid form after slurry) ([3]; Slurry 6, Acetone): Form C | Result (solid form after slurry) ([3]; Slurry 7, Isobutanol): Form C | Result (solid form after slurry) ([3]; Slurry 8, Isopropyl Acetate): Form C | Result (solid form after slurry) ([3]; Slurry 9, Acetonitrile): Form C | Result (solid form after slurry) ([3]; Slurry 10, 2-Butanone): Form C | Result (solid form after slurry) ([3]; Slurry 11, Toluene): Mixture of Form A and C | Result (solid form after slurry) ([3]; Slurry 13, Tert-butyl methyl ether): Form C | Result (solid form after slurry) ([3]; Slurry 14, Propanol): Form C | Result (solid form after slurry) ([3]; Slurry 15, Isopentanol): Form C | Result (solid form after slurry) ([3]; Slurry 16, Butyl acetate): Form C | Result (solid form after slurry) ([3]; Slurry 17, Ethyl Formate): Form C | Result (solid form after slurry) ([3]; Slurry 18, 1,4-dioxane): Amorphous | Result (solid form after slurry) ([3]; Slurry 19, Butanol): Form C | Result (solid form after slurry) ([3]; Slurry 20, Heptane): Form C | Result (solid form after slurry) ([3]; Slurry 21, Pentane): Form C | Result (solid form after slurry) ([3]; Slurry 22, Cyclohexane): Form C | Result (solid form after slurry) ([3]; Slurry 23, Methylisobutyl Ketone): Form C | Result (solid form after slurry) ([3]; Slurry 24, Xylene): Form C | Result (solid form after slurry) ([3]; Slurry 25, Isobutyl acetate): Form C | Result (solid form after slurry) ([3]; Slurry 26, Ethyl ether): Form C | Stability of the crystalline form ([1]; listed as Crystalline form A): unstable in certain solvent systems

Continued, in another order:

Chemical stability (degradation) ([1]; free acid): readily degraded
Structure (SMILES): CC1=C[C@@H]2CN(C(=O)N2OS(=O)(=O)O)[C@@H]1C(N)=O [DUR, Durlobactam]
Inhibition of β-lactamases [4]: inhibit the β-lactamases commonly found in A. baumannii

Stability of the crystalline form ([1]; listed as crystalline form C): more stable
Structure (SMILES): CC1=C[C@@H]2CN(C(=O)N2OS(=O)(=O)O)[C@@H]1C(N)=O [DUR-Ca Form C, Durlobactam Calcium salt]
